Like-named read-outs stand apart in the source and are kept apart here.
Columns and labels:
pERK in MDA-MB-231 cells = experiment: Inhibitory activity at pERK (In Cell Western, MDA-MB-231 cells); assay type: cell-based; details: Homo sapiens
Method in brief: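 MDA-MB-231 cells were treated 2 h at 37 °C with 8 compound concentrations in 3-fold dilutions from 30 μM top (0.3% DMSO, DMEM with 0.1% BSA). Cells were then fixed, methanol-permeabilized and immunostained for pERK with PI counterstain. Fluorescence was read on Acumen and IC50 calculated.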

PLC-PRF-5 cells = experiment: Inhibition of proliferation of PLC-PRF-5 cells (ATPlite); assay type: cell-based; details: Homo sapiens
Method in brief: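 PLC-PRF-5 cells in DMEM/10% FBS, seeded 2 h before compound; 8-point 3-fold dilutions from 30 μM final top, 0.3% DMSO. After 96 h at 37 °C, 5% CO2, ATP content read by ATPlite luminescence; IC50 calculated.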

B-Raf kinase = B-Raf kinase (Homo sapiens (Human), UniProt P15056); experiment: Inhibitory activity at B-Raf kinase (ADP-GLO assay); assay type: biochemical
Chain of B-Raf kinase (P15056 416-766): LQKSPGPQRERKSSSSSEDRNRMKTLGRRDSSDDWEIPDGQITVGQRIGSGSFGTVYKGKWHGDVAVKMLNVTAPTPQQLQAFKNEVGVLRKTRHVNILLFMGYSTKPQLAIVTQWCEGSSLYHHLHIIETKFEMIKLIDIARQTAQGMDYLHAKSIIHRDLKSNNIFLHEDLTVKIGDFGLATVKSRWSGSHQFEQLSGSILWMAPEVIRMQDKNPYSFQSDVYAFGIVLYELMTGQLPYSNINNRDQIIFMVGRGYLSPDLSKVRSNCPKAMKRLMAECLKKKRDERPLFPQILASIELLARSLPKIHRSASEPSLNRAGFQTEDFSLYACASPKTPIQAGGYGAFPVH
Method in brief: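 B-Raf (5 nM) was preincubated with compound (0.25% DMSO final) for 20 min at 30 °C in 50 mM Hepes pH 7.5, 10 mM Mg²⁺, 1 mM EGTA, 2 mM DTT. Reaction with 6 μM ATP and 30 nM GST-MEK1 ran 2 hrs at 30 °C. ADP was detected by ADP-GLO luminescence, giving IC50 values.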

KDR kinase (790-1356 AA) = KDR kinase (790-1356 AA) (Homo sapiens (Human), UniProt P35968); experiment: Inhibitory activity at KDR kinase (Lance Ultra Ulight-TK assay); assay type: biochemical
Chain of KDR kinase (790-1356 AA) (P35968 790-1356): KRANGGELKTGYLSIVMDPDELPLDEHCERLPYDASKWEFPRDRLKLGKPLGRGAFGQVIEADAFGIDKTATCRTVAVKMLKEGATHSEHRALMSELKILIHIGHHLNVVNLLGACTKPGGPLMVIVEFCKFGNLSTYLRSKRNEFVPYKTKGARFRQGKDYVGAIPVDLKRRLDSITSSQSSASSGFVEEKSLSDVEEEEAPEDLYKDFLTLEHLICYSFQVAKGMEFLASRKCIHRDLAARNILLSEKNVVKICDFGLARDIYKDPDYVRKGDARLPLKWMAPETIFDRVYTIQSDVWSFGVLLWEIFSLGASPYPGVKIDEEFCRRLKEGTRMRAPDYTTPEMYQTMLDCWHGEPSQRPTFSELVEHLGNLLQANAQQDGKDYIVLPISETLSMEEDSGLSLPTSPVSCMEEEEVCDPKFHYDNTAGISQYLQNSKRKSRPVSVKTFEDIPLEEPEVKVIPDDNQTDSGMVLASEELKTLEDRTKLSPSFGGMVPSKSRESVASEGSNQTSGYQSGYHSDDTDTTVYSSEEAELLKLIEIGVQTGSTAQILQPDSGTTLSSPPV
Method in brief: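 TR-FRET (Eu-anti-phosphotyrosine PT66) with 20 nM KDR preincubated with compound 20 min at 30 °C in HEPES pH 7.5 buffer with Mg2+/Mn2+, 0.5% DMSO.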

[1] = Half-life in pre-clinical animal studies; assay type: in vivo; details: compared with compounds of the invention
tumor = experiment: In vivo anti-tumor activity in pre-clinical animal studies; details: compared with compounds of the invention
[2] = MDA-MB-231, MDA-MB-231 cells, read-out: MDA-MB-231 pERK IC50
[3] = PLC-PRF-5, PLC-PRF-5 cells, read-out: PLC-PRF-5 cell proliferation IC50

| Compound | IC50 (pERK in MDA-MB-231 cells; [2]) | IC50 (PLC-PRF-5 cells; [3]) | IC50 (B-Raf kinase) | IC50 (KDR kinase (790-1356 AA)) | IC50 (pERK in MDA-MB-231 cells; MDA-MB-231, read-out: MDA-MB-231 pERK IC50) | IC50 (PLC-PRF-5 cells; PLC-PRF-5, read-out: PLC-PRF-5 cell proliferation IC50) | half-life [1] | in vivo anti-tumor activities (tumor) |
| --- | --- | --- | --- | --- | --- | --- | --- | --- |
| Cc1cc(Oc2ccnc(NC(=O)C3CC3)c2)ccc1NC(=O)Nc1cccc(C(F)(F)F)c1 [Exe. 193] | 7.4 nM | 2300 nM | 6.8 nM | 10.9 nM | – | – | – | – |
| Cc1cc(Oc2ccnc(NC(=O)C3CC3)c2)ccc1NC(=O)Nc1cccc(OC(F)(F)F)c1 [Exe. 194] | 9.5 nM | 2320 nM | 8.8 nM | 10.5 nM | – | – | – | – |
| Cc1cc(Oc2ccnc(NC(=O)C3CC3)c2)ccc1NC(=O)Nc1cc(OC(F)(F)F)ccc1F [Exe. 195] | 10.1 nM | 790 nM | 13 nM | 6.1 nM | – | – | – | – |
| Cc1cc(Oc2ccnc(NC(=O)C3CC3)c2)ccc1NC(=O)Nc1ccc(F)c(OC(F)(F)F)c1 [Exe. 196] | 14.6 nM | 2500 nM | 13 nM | 11.8 nM | – | – | – | – |
| Cc1cc(Oc2ccnc(NC(=O)C3CC3)c2)ccc1NC(=O)Nc1ccc(Cl)c(C(C)(F)F)c1 [Exe. 199] | 11 nM | 3700 nM | 11.7 nM | 14 nM | – | – | – | – |
| O=C(Nc1ccc(F)c(C(F)(F)F)c1)Nc1ccc(Oc2ccnc(NC(=O)C3CC3)c2)cc1F [Exe. 205] | 9.2 nM | 1090 nM | 13 nM | 25.1 nM | – | – | – | – |
| O=C(Nc1cc(F)cc(C(F)(F)F)c1)Nc1ccc(Oc2ccnc(NC(=O)C3CC3)c2)cc1F [Exe. 208] | 9.8 nM | 640 nM | 37 nM | 14.9 nM | – | – | – | – |
| O=C(Nc1ccc(Oc2ccnc(NC(=O)C3CC3)c2)cc1F)Nc1cc(C(F)(F)F)ccc1F [Exe. 209] | 5.9 nM | 51 nM | 9 nM | 8.4 nM | – | – | – | – |
| O=C(Nc1ccc(Oc2ccnc(NC(=O)C3CC3)c2)cc1F)Nc1cc(C(F)(F)F)ccc1Cl [Exe. 210] | 17 nM | 636 nM | 19 nM | 11.8 nM | – | – | – | – |
| O=C(Nc1cccc(C(F)(F)F)c1)Nc1ccc(Oc2ccnc(NC(=O)C3CC3)c2)cc1F [Exe. 211] | 2.3 nM | 190 nM | 6.4 nM | 7.8 nM | – | – | – | – |
| O=C(Nc1cc(N2CC(F)(F)C2)cc(C(F)(F)F)c1)Nc1ccc(Oc2ccnc(NC(=O)C3CC3)c2)cc1F [Exe. 212] | 21.1 nM | 177 nM | 20.1 nM | 5.5 nM | – | – | – | – |
| O=C(Nc1ccc(F)c(OC(F)(F)F)c1)Nc1ccc(Oc2ccnc(NC(=O)C3CC3)c2)cc1F [Exe. 215] | 14.5 nM | 618 nM | 19 nM | 13.2 nM | – | – | – | – |
| CC(F)(F)c1ccnc(NC(=O)Nc2ccc(Oc3ccnc(NC(=O)C4CC4)c3)cc2F)c1 [Exe. 216] | 11.8 nM | 536 nM | 10 nM | 10.6 nM | – | – | – | – |
| CC(F)(F)c1cccc(NC(=O)Nc2ccc(Oc3ccnc(NC(=O)C4CC4)c3)cc2F)c1 [Exe. 217] | 2.3 nM | 178 nM | 8.9 nM | 9.9 nM | – | – | – | – |
| CC(F)(F)c1ccc(F)c(NC(=O)Nc2ccc(Oc3ccnc(NC(=O)C4CC4)c3)cc2F)c1 [Exe. 218] | 3.1 nM | 21 nM | 7.8 nM | 9.1 nM | – | – | – | – |
| CC(F)(F)c1cc(NC(=O)Nc2ccc(Oc3ccnc(NC(=O)C4CC4)c3)cc2F)ccc1Cl [Exe. 219] | 8.8 nM | 632 nM | 8.3 nM | 11 nM | – | – | – | – |
| CC(F)(F)c1cc(NC(=O)Nc2ccc(Oc3ccnc(NC(=O)C4CC4)c3)cc2F)ccc1F [Exe. 220] | 4.6 nM | 240 nM | 7.1 nM | 14.9 nM | – | – | – | – |
| N#Cc1ccc(NC(=O)Nc2ccc(Oc3ccnc(NC(=O)C4CC4)c3)cc2F)cc1Cl [Exe. 221] | – | – | 11 nM | 6.7 nM | 7.8 nM | 1270 nM | – | – |
| Cc1ccc(Oc2ccnc(NC(=O)C3CC3)c2)cc1NC(=O)Nc1cc(F)cc(C(F)(F)F)c1 [Exe. 224] | 22.4 nM | 4700 nM | 29 nM | 9.5 nM | – | – | – | – |
| Cc1ccc(Oc2ccnc(NC(=O)C3CC3)c2)cc1NC(=O)Nc1cc(C(F)(F)F)ccc1F [Exe. 225] | 12 nM | 5720 nM | 11 nM | 10.7 nM | – | – | – | – |
| Cc1ccc(Oc2ccnc(NC(=O)C3CC3)c2)cc1NC(=O)Nc1cc(C(C)(F)F)ccc1F [Exe. 227] | 34.4 nM | 17800 nM | 27 nM | 17.2 nM | – | – | – | – |
| Cc1cc(NC(=O)Nc2ccc(F)c(C(F)(F)F)c2)ccc1Oc1ccnc(NC(=O)C2CC2)c1 [Exe. 230] | 12 nM | 830 nM | 20.7 nM | 11.7 nM | – | – | – | – |
| Cc1cc(NC(=O)Nc2cccc(C(F)(F)F)c2)ccc1Oc1ccnc(NC(=O)C2CC2)c1 [Exe. 231] | 7.1 nM | 310 nM | 12.5 nM | 11.6 nM | – | – | – | – |
| Cc1cc(NC(=O)Nc2cccc(OC(F)(F)F)c2)ccc1Oc1ccnc(NC(=O)C2CC2)c1 [Exe. 232] | 10.9 nM | 418 nM | 14 nM | 11 nM | – | – | – | – |
| Cc1cc(NC(=O)Nc2cc(C(C)(F)F)ccc2F)ccc1Oc1ccnc(NC(=O)C2CC2)c1 [Exe. 234] | 6.8 nM | 63 nM | 16 nM | 9.9 nM | – | – | – | – |
| Cc1cc(NC(=O)Nc2ccc(Cl)c(C(C)(F)F)c2)ccc1Oc1ccnc(NC(=O)C2CC2)c1 [Exe. 235] | 12.2 nM | 1290 nM | 22 nM | 13.4 nM | – | – | – | – |
| O=C(Nc1ccc(Oc2ccnc(NC(=O)C3CC3)c2)cc1)Nc1cc(OCC2CNC2)cc(C(F)(F)F)c1 [Exe. 237, N-[4-[4-[[3-(azetidin-3-ylmethoxy)-5-(trifluoromethyl)phenyl]carbamoylamino]phenoxy]-2-pyridyl]cyclopropanecarboxamide] | 730 nM | 14900 nM | 3.7 nM | 13.9 nM | – | – | – | – |
| Nc1cc(NC(=O)Nc2ccc(Oc3ccnc(NC(=O)C4CC4)c3)c(F)c2)cc(C(F)(F)F)c1 [Exe. 239] | 27.2 nM | 930 nM | 7 nM | 9.7 nM | – | – | – | – |
| CN1CC(Oc2cc(NC(=O)Nc3ccc(Oc4ccnc(NC(=O)C5CC5)c4)cc3)cc(C(F)(F)F)c2)C1 [Exe. 241, N-[4-[4-[[3-(1-methylazetidin-3-yl)oxy-5-(trifluoromethyl)phenyl]carbamoylamino]phenoxy]-2-pyridyl]cyclopropanecarboxamide] | 61.5 nM | 1770 nM | 9.1 nM | 17.9 nM | – | – | – | – |
| CNC(=O)c1cc(Oc2ccc(NC(=O)Nc3ccc(Cl)c(C(F)(F)F)c3)cc2)ccn1 [sorafenib] | – | – | – | – | – | – | shorter half-life than many of the compounds in this invention | weaker than that of many of the compounds in the present invention |
